Experimental data: patent US20110086809A1, “Enteral Administration Of Arginine-Glutamine Dipeptide To Support Retinal, Intestinal, Or Nervous System Development” (priority 2009, published 2011)

Assays:
[1] = tested on: neonatal mouse model of oxygen-induced retinopathy; assay: Neonatal mouse model of oxygen-induced retinopathy, pre-retinal nuclei count; type: in vivo; conditions: FIG. 1
Description: In the neonatal mouse model of oxygen-induced retinopathy, 7-day old mice are placed with their nursing dams in a 75% oxygen atmosphere for 5 days. Mouse pups receive twice a day gavage feedings of arginine-glutamine dipeptide or control solution (50 μL) starting on postnatal day 12 (P12) and continuing through postnatal day 17 (P17). Gavage feeds include a control (0.9% sodium chloride) and the test compounds and different doses of arginine-glutamine dipeptide (1.0, 2.5 and 5 g/kg·day). The daily dosage of the dipeptide is divided evenly between the two daily gavage feedings.
After the fifth day following return to normoxia (P17), the animals are euthanized by injection of a lethal dose of a combination of ketamine (70 mg/kg body weight) and xylazine (15 mg/kg body weight) followed by cervical dislocation. The eyes are removed and fixed in 4% paraformaldehyde, embedded in paraffin, and sectioned. Pre-retinal nuclei are counted by masked observers. Efficacy of treatment is calculated as the percent average nuclei per section in the eyes of arginine-glutamine dipeptide treated animals versus control animals.
Some of the eyes are taken for qualitative retinal flatmount analysis. For these mice, at the time of euthanasia, the mice are perfused with fluorescein isothiocyanate-labeled dextran to visualize the vasculature. […]

[2] = tested on: intestinal injury induced by hyperoxia in a mouse model; assay: Histological intestinal damage score in hyperoxia-exposed neonatal mice; type: in vivo; conditions: ileum histology, score 0 to 4+ (0=no damage, 4=severe damage); hyperoxic conditions plus dipeptide by gavage; hyperoxia alone 3.5; FIG. 2
Description: (§1) In the neonatal mouse model of oxygen-induced retinopathy, 7-day old mice are placed with their nursing dams in a 75% oxygen atmosphere for 5 days. Mouse pups receive twice a day gavage feedings of arginine-glutamine dipeptide or control solution (20 μL) starting on postnatal day 12 (P12) and continuing through postnatal day 17 (P17). In one experiment, different dosages of arginine-glutamine dipeptide (1.0, 2.5 and 5 g/kg·day as a hydrochloride salt, Bachem, Babendorf, Switzerland) are tested. In a second experiment, arginine-glutamine dipeptide (5 g/kg day) is given and a normoxia group is used as a control.
(§2) After the fifth day following return to normoxia (P17), the animals are euthanized by injection of a lethal dose of a combination of ketamine (70 mg/kg body weight) and xylazine (15 mg/kg body weight) followed by cervical dislocation.
Intestinal injury is evaluated using histological techniques. A portion of intestine from the ileum is fixed in 10% (w·v) neutral buffered formalin for 24 hours for light microscopy. The intestine is paraffin embedded, cut into 4 μm sections, mounted on glass slides, and stained with hematoxylin and eosin according to standard procedures. Histological analyses are performed using a damage scoring system from 0 to 4+ (0=no damage, 4=severe damage with mucosal sloughing) to determine the severity of the intestinal injury.

Bcl-2 = assay: Brain Bcl-2 levels by immunoblotting in hyperoxia-exposed neonatal mice; type: in vivo; conditions: mouse brain, hyperoxic conditions, treated with dipeptide; FIG. 3
Description: as §1, §2
Bcl-2 levels are determined using standard immunoblotting techniques. The brain is homogenized with a Polytron homogenizer, and the homogenates are stored in aliquots at −80° C. Gel electrophoresis is performed using the BioRad electrophoresis system (Carlsbad, Calif.). […] Protein bands are quantified by densitometry.

caspase-3 = assay: Brain caspase-3 colorimetric activity assay in hyperoxia-exposed neonatal mice; type: in vivo, mouse; conditions: compared to hyperoxic mice; FIG. 4
Description: as §1, §2
Caspase-3 activity is determined using a Caspase-3 Colorimetric Activity Assay Kit (Chemicon International, Inc., Temecula, Calif.). The brain is homogenized with a Polytron homogenizer, and the homogenates are stored in aliquots at −80° C.

arginine-glutamine dipeptide
dose/response of reduction of nuclei per section ([1]; dosages between 1 g/kg·day and 5 g/kg·day, highest effectiveness at 5 g/kg·day): highest level of effectiveness was shown at 5 g/kg·day
average number of nuclei per section in the eyes ([1]; neonatal mice exposed to hyperoxia (75% oxygen, 5 days), gavage twice a day P12-P17, 1, 2.5 and 5 g/kg·day, versus control (0.9% sodium chloride)): decreased at all levels of administration
average intestinal damage score [2]: 1.67
increased Bcl-2 expression in brain (Bcl-2): 33%
reduction in brain caspase-3 activity (caspase-3): 32%
